Like-named read-outs stand apart in the source and are kept apart here.

Among the data in patent publication US9006235B2, “Inhibitors of human immunodeficiency virus replication” (priority 2012, dated 2015) are EC50 values, retold here.

The test relates to recombinant NL-Rluc virus. Briefly: Inhibition of HIV replication (NL-Rluc virus, luciferase readout in MT-2 cells). Type of test: cell-based. The note with it: Human immunodeficiency virus 1, MT2, 120 h.

For `Cc1nc2cc(NC(=O)CCCOc3ccccc3)nn2c(-c2cc(F)c3c(c2C)CCCO3)c1[C@H](OC(C)(C)C)C(=O)O` [Example 27, (2S)-2-tert-butoxy-2-(7-(8-fluoro-5-methylchroman-6-yl)-5-methyl-2-(4-phenoxybutanamido)pyrazolo[1,5-a]pyrimidin-6-yl)acetic acid], under “read-out: Activity”, the EC50 is 0.1 to 1 µM.

Regarding `Cc1nc2cc(NC(=O)CCC3CCCCC3)nn2c(-c2cc(F)c3c(c2C)CCCO3)c1[C@H](OC(C)(C)C)C(=O)O` [Example 28, (2S)-2-tert-butoxy-2-(2-(3-cyclohexylpropanamido)-7-(8-fluoro-5-methylchroman-6-yl)-5-methylpyrazolo[1,5-a]pyrimidin-6-yl)acetic acid], under “read-out: Activity”, the EC50 was under 0.1 µM.

In the case of `COc1cc(C(=O)Nc2cc3nc(C)c([C@H](OC(C)(C)C)C(=O)O)c(-c4cc(F)c5c(c4C)CCCO5)n3n2)cc(OC)c1OC` [Example 29, (2S)-2-tert-butoxy-2-(7-(8-fluoro-5-methylchroman-6-yl)-5-methyl-2-(3,4,5-trimethoxybenzamido)pyrazolo[1,5-a]pyrimidin-6-yl)acetic acid], the EC50 (read-out: Activity) was 0.1 to 1 µM.

On to `Cc1nc2cc(NC(=O)C(=O)c3c[nH]c4ccccc34)nn2c(-c2cc(F)c3c(c2C)CCCO3)c1[C@H](OC(C)(C)C)C(=O)O` [Example 31, (2S)-2-(2-(2-(1H-indol-3-yl)-2-oxoacetamido)-7-(8-fluoro-5-methylchroman-6-yl)-5-methylpyrazolo[1,5-a]pyrimidin-6-yl)-2-tert-butoxyacetic acid], for which, where the note is “read-out: Activity”, the EC50 is under 0.1 µM.

In the case of `Cc1ccc(OC(=O)Nc2cc3nc(C)c([C@H](OC(C)(C)C)C(=O)O)c(-c4cc(F)c5c(c4C)CCCO5)n3n2)cc1` [Example 32, (2S)-2-(tert-butoxy)-2-(7-(8-fluoro-5-methylchroman-6-yl)-5-methyl-2-(((p-tolyloxy)carbonyl)amino)pyrazolo[1,5-a]pyrimidin-6-yl)acetic acid], the EC50 was over 1 µM (MT-2 cells infected with NL-RLuc virus, 5 days of incubation, luciferase, serum condition not specified, read-out: Activity) and 6.41 µM (MT-2 cells infected with NL-RLuc virus, 5 days of incubation, luciferase, serum condition not specified, read-out: EC50).

As for `Cc1nc2cc(NC(=O)OCc3ccccc3)nn2c(-c2cc(F)c3c(c2C)CCCO3)c1[C@H](OC(C)(C)C)C(=O)O` [Example 33, (2S)-2-(2-(((benzyloxy)carbonyl)amino)-7-(8-fluoro-5-methylchroman-6-yl)-5-methylpyrazolo[1,5-a]pyrimidin-6-yl)-2-(tert-butoxy)acetic acid], the EC50 came to 0.06 µM. Moreover, the EC50 (read-out: Activity) was under 0.1 µM.

Consider `CCCCOC(=O)Nc1cc2nc(C)c([C@H](OC(C)(C)C)C(=O)O)c(-c3cc(F)c4c(c3C)CCCO4)n2n1` [Example 34, (2S)-2-(tert-butoxy)-2-(2-((butoxycarbonyl)amino)-7-(8-fluoro-5-methylchroman-6-yl)-5-methylpyrazolo[1,5-a]pyrimidin-6-yl)acetic acid], for which the EC50 (read-out: Activity) was under 0.1 µM.

`Cc1nc2cc(NC(=O)OCC(C)(C)C)nn2c(-c2cc(F)c3c(c2C)CCCO3)c1[C@H](OC(C)(C)C)C(=O)O` [Example 35, (2S)-2-(tert-butoxy)-2-(7-(8-fluoro-5-methylchroman-6-yl)-5-methyl-2-(((neopentyloxy)carbonyl)amino)pyrazolo[1,5-a]pyrimidin-6-yl)acetic acid]: the EC50 (read-out: Activity) is under 0.1 µM.

As to `Cc1nc2cc(NC(=O)OCC[Si](C)(C)C)nn2c(-c2cc(F)c3c(c2C)CCCO3)c1[C@H](OC(C)(C)C)C(=O)O` [Example 36, (2S)-2-(tert-butoxy)-2-(7-(8-fluoro-5-methylchroman-6-yl)-5-methyl-2-(((2-(trimethylsilyl)ethoxy)carbonyl)amino)pyrazolo[1,5-a]pyrimidin-6-yl)acetic acid], the EC50 (read-out: Activity) is under 0.1 µM.

For `Cc1ccc(NC(=O)Nc2cc3nc(C)c([C@H](OC(C)(C)C)C(=O)O)c(-c4cc(F)c5c(c4C)CCCO5)n3n2)cc1` [Example 37, (2S)-2-(tert-butoxy)-2-(7-(8-fluoro-5-methylchroman-6-yl)-5-methyl-2-(3-(p-tolyl)ureido)pyrazolo[1,5-a]pyrimidin-6-yl)acetic acid], the EC50 (read-out: Activity) was under 0.1 µM.

As to `Cc1nc2cc(NCc3ccccc3)nn2c(-c2cc(F)c3c(c2C)CCCO3)c1[C@H](OC(C)(C)C)C(=O)O` [Example 38, (2S)-2-(2-(benzylamino)-7-(8-fluoro-5-methylchroman-6-yl)-5-methylpyrazolo[1,5-a]pyrimidin-6-yl)-2-(tert-butoxy)acetic acid], the EC50 amounted to 0.3 µM. In addition, for the setting “read-out: Activity”, the EC50 fell in the range of 0.1 to 1 µM.

`Cc1nc2cc(NCCc3ccccc3)nn2c(-c2cc(F)c3c(c2C)CCCO3)c1[C@H](OC(C)(C)C)C(=O)O` [Example 39, (2S)-2-(tert-butoxy)-2-(7-(8-fluoro-5-methylchroman-6-yl)-5-methyl-2-(phenethylamino)pyrazolo[1,5-a]pyrimidin-6-yl)acetic acid]: the EC50 (read-out: Activity) was under 0.1 µM.

With `Cc1ccc(CCNc2cc3nc(C)c([C@H](OC(C)(C)C)C(=O)O)c(-c4cc(F)c5c(c4C)CCCO5)n3n2)cc1` [Example 40, (2S)-2-(tert-butoxy)-2-(7-(8-fluoro-5-methylchroman-6-yl)-5-methyl-2-((4-methylphenethyl)amino)pyrazolo[1,5-a]pyrimidin-6-yl)acetic acid], the EC50 (read-out: Activity) is under 0.1 µM.

As for `Cc1nc2cc(NCCCc3ccccc3)nn2c(-c2cc(F)c3c(c2C)CCCO3)c1[C@H](OC(C)(C)C)C(=O)O` [Example 41, (2S)-2-(tert-butoxy)-2-(7-(8-fluoro-5-methylchroman-6-yl)-5-methyl-2-((3-phenylpropyl)amino)pyrazolo[1,5-a]pyrimidin-6-yl)acetic acid], the EC50 was found to be 0.05 µM. Besides, the EC50 (read-out: Activity) is under 0.1 µM.

Consider `Cc1nc2cc(NCCCC3CCCC3)nn2c(-c2cc(F)c3c(c2C)CCCO3)c1[C@H](OC(C)(C)C)C(=O)O` [Example 42, (2S)-2-(tert-butoxy)-2-(2-((3-cyclopentylpropyl)amino)-7-(8-fluoro-5-methylchroman-6-yl)-5-methylpyrazolo[1,5-a]pyrimidin-6-yl)acetic acid], for which the EC50 (read-out: Activity) is under 0.1 µM.

With `Cc1nc2cc(NCCC(C)C)nn2c(-c2cc(F)c3c(c2C)CCCO3)c1[C@H](OC(C)(C)C)C(=O)O` [Example 43, (2S)-2-(tert-butoxy)-2-(7-(8-fluoro-5-methylchroman-6-yl)-2-(isopentylamino)-5-methylpyrazolo[1,5-a]pyrimidin-6-yl)acetic acid], the EC50 (read-out: Activity) was under 0.1 µM.

Consider `Cc1nc2cc(N(CCC(C)C)CCC(C)C)nn2c(-c2cc(F)c3c(c2C)CCCO3)c1[C@H](OC(C)(C)C)C(=O)O` [Example 44, (2S)-2-(tert-butoxy)-2-(2-(diisopentylamino)-7-(8-fluoro-5-methylchroman-6-yl)-5-methylpyrazolo[1,5-a]pyrimidin-6-yl)acetic acid], for which the EC50 came to 1.6 µM. Also, the EC50 (read-out: Activity) is over 1 µM.

For `Cc1nc2cc(NCCC(C)(C)C)nn2c(-c2cc(F)c3c(c2C)CCCO3)c1[C@H](OC(C)(C)C)C(=O)O` [Example 45, (2S)-2-(tert-butoxy)-2-(2-((3,3-dimethylbutyl)amino)-7-(8-fluoro-5-methylchroman-6-yl)-5-methylpyrazolo[1,5-a]pyrimidin-6-yl)acetic acid], the EC50 (read-out: Activity) is under 0.1 µM.

For `Cc1nc2cc(N(CCC(C)(C)C)CCC(C)(C)C)nn2c(-c2cc(F)c3c(c2C)CCCO3)c1[C@H](OC(C)(C)C)C(=O)O` [Example 46, (2S)-2-(2-(bis(3,3-dimethylbutyl)amino)-7-(8-fluoro-5-methylchroman-6-yl)-5-methylpyrazolo[1,5-a]pyrimidin-6-yl)-2-(tert-butoxy)acetic acid], the EC50 is 2.57 µM. In addition, where the note is “read-out: Activity”, the EC50 is over 1 µM.

As to `Cc1nc2cc(NCCC(C)CC(C)(C)C)nn2c(-c2cc(F)c3c(c2C)CCCO3)c1[C@H](OC(C)(C)C)C(=O)O` (stereo partly drawn) [Example 47, (2S)-2-(tert-butoxy)-2-(7-(8-fluoro-5-methylchroman-6-yl)-5-methyl-2-((3,5,5-trimethylhexyl)amino)pyrazolo[1,5-a]pyrimidin-6-yl)acetic acid], under “read-out: Activity”, the EC50 was under 0.1 µM.

As for `Cc1nc2cc(NCCC(F)(F)F)nn2c(-c2cc(F)c3c(c2C)CCCO3)c1[C@H](OC(C)(C)C)C(=O)O` [Example 48, (2S)-2-(tert-butoxy)-2-(7-(8-fluoro-5-methylchroman-6-yl)-5-methyl-2-((3,3,3-trifluoropropyl)amino)pyrazolo[1,5-a]pyrimidin-6-yl)acetic acid], the EC50 stood at 0.34 µM. Also, the EC50 (read-out: Activity) was 0.1 to 1 µM.

For the molecule `Cc1nc2cc(NC3CCCC3)nn2c(-c2cc(F)c3c(c2C)CCCO3)c1[C@H](OC(C)(C)C)C(=O)O` [Example 49, (2S)-2-(tert-butoxy)-2-(2-(cyclopentylamino)-7-(8-fluoro-5-methylchroman-6-yl)-5-methylpyrazolo[1,5-a]pyrimidin-6-yl)acetic acid], the EC50 (read-out: Activity) lay within 0.1 to 1 µM.

Turning to `Cc1nc2cc(N3CCCCC3)nn2c(-c2cc(F)c3c(c2C)CCCO3)c1[C@H](OC(C)(C)C)C(=O)O` [Example 50, (2S)-2-(tert-butoxy)-2-(7-(8-fluoro-5-methylchroman-6-yl)-5-methyl-2-(piperidin-1-yl)pyrazolo[1,5-a]pyrimidin-6-yl)acetic acid], the EC50 was 0.06 µM. Further, the EC50 (read-out: Activity) is under 0.1 µM.

As for `Cc1nc2cc(N3CCCC3)nn2c(-c2cc(F)c3c(c2C)CCCO3)c1[C@H](OC(C)(C)C)C(=O)O` [Example 51, (2S)-2-(tert-butoxy)-2-(7-(8-fluoro-5-methylchroman-6-yl)-5-methyl-2-(pyrrolidin-1-yl)pyrazolo[1,5-a]pyrimidin-6-yl)acetic acid], the EC50 (read-out: Activity) was 0.1 to 1 µM.

On to `Cc1nc2cc(N(C)CCCC3CCCC3)nn2c(-c2cc(F)c3c(c2C)CCCO3)c1[C@H](OC(C)(C)C)C(=O)O` [Example 52, (2S)-2-(tert-butoxy)-2-(2-((3-cyclopentylpropyl)(methyl)amino)-7-(8-fluoro-5-methylchroman-6-yl)-5-methylpyrazolo[1,5-a]pyrimidin-6-yl)acetic acid], for which the EC50 (read-out: Activity) is under 0.1 µM.
